According to US7427408B2, “Quorum sensing and biofilm formation” (priority 2002, dated 2008):

Legend:
[1] = test system: wildtype S. mutans biofilms; assay: Treatment of in vitro wildtype biofilm with ampicillin; format: cell-based, Streptococcus mutans; conditions: 16 hours
Protocol: (§1) Biofilms of S. mutans were grown as follows. Individual sterile culture dishes were filled with 2.5 mL of brain heart infusion broth supplemented with 1% (w/v) sucrose. Next, a sterile 18 mm glass microscope cover slip was added to each dish and the culture dish was covered. Each sample was then inoculated with a defined volume of overnight culture. The dishes were incubated anaerobically at 37° C. overnight.
Biofilms were grown overnight using previously described conditions. For treatment with SDS, cover-slips were removed from overnight incubation and rinsed briefly. These were then placed into a fresh culture dish and 2mL of sterile, 1% (w/v) SDS solution was added to each dish. The biofilms were placed on a standard shaker set at 150 rpm for one hour at room temperature. Next, supernatant samples were checked at 40× magnification to confirm that cells were fully individualized and not connected in chains. These samples were measured for their OD600 values. For treatment with antibiotics, biofilms were again grown under standard conditions overnight. […]
(§2) As biofilms are known to be very resistant to detergents and biocides, we were also interested to determine if this property was influenced by the luxS mutation. […] These supernatants were then checked by microscopy to ensure that cells were not clumped, and subsequently, measured for the OD600. […]

[2] = test system: V. harveyi BB170 (AI-2 reporter strain); assay: AI-2 luminescence reporter assay of S. mutans conditioned media; format: cell-based, Vibrio harveyi; conditions: S. mutans incubated 3 hours in AB media with sucrose at 1% final concentration
Protocol: S. mutans was grown and assayed as described in Materials and Methods. Cells were grown overnight and resuspended to an OD600 of 0.4 in reporter assay (AB) media and incubated with aeration for 3 hours at 37° C. One sample was incubated in AB alone, while the other had sucrose added to a final concentration of 1%.
The AI-2 luminescence reporter assay was performed essentially as described (38), with the following modifications. To obtain cell free conditioned media, S. mutans was grown overnight as described. Stationary phase cells were resuspended in AB media to an OD600 of 0.4. Cells were then incubated at 37° C. with aeration for 3 hrs. […]
To determine luminescence, an overnight culture of V. harveyi BB170 was diluted 1:1000 into fresh AB medium and 180 μL of cells was added to each 1.5 mL microfuge tube. […]
To determine levels of background luminescence, a sample containing 200 μL of 1:1000 diluted V. harveyi was also included. […] All samples were measured hourly until peak induction at the 3 hr time point. Measurements were collected using a TD 20/20 luminometer and expressed as arbitrary luminescence units.
Since S. mutans is an acidogenic bacterium, pH readings were taken to ensure that there were no negative effects due to lowered pH.

[3] = test system: S. mutans biofilms (wildtype and luxS mutant); assay: Treatment of in vitro biofilm with SDS (detergent resistance); format: cell-based, Streptococcus mutans; conditions: 1% SDS, shaken at 150 rpm for one hour
Protocol: Three samples of wildtype and mutant biofilms grown on glass coverslips were shaken at 150 rpm for one hour. The OD600 of the resulting supernatants were compared.
as §1
Biofilms were grown overnight using previously described conditions. For treatment with SDS, cover-slips were removed from overnight incubation and rinsed briefly. These were then placed into a fresh culture dish and 2mL of sterile, 1% (w/v) SDS solution was added to each dish. The biofilms were placed on a standard shaker set at 150 rpm for one hour at room temperature. […] These samples were measured for their OD600 values. […]
as §2

CC1(C)S[C@@H]2[C@H](NC(=O)[C@H](N)c3ccccc3)C(=O)N2[C@H]1C(=O)O [ampicillin]
cells surviving ampicillin treatment ([1]; 50 μg/mL ampicillin): < 1%
cells surviving ampicillin treatment ([1]; 500 μg/mL ampicillin): none survived

OC[C@H]1O[C@@](CO)(O[C@H]2O[C@H](CO)[C@@H](O)[C@H](O)[C@H]2O)[C@@H](O)[C@@H]1O [sucrose]
luminescence (AI-2 induction) relative to background [2]: potent reduction in luminescence to below background values

CCCCCCCCCCCCOS(=O)(=O)[O-].[Na+] [SDS]
OD600 of supernatant, wildtype relative to luxS mutant [3]: about 6 fold
